US20250288624A1, “LONG-TERM STABILIZATION, FORMULATION AND TABLETING OF LIVE MICROBIAL CELLS” (priority 2022, published 2025)

Experiments:
E. meliloti = assay: Heat shock screen of material library at 50° C. for 24 hours (Viability Score); format: cell-based, Ensifer meliloti
Description: FIG. 18. E. meliloti stabilizers against 24 hours at 50° C. Extended data of FIG. 8. E. meliloti was mixed with the material library at the 1×concentration, freeze dried, and exposed to 50° C. for 24 hours. The viability score was characterized as in FIG. 8, and the data is ordered by the viability score of the comparison values when stored at 23° C.
E. meliloti is currently used as a seed inoculant prior to planting, however, there remains a need for improved stability of the microbial product present during formulation, storage, and seed inoculation, particularly when it comes to tolerance to elevated temperatures above 40° C.^28,29. […] Functional symbiosis was measured as percent of seedlings that successfully formed nodules. […]
(§1) The viability of the stored microbial-material combinations was determined by rehydrating in water, making 10-fold serial dilutions in PBS, plating onto the appropriate solid medium and quantifying the resulting colonies. […]
(§2) To assign a Viability Score, using FIJI (imageJ), the 16-bit tiff plate images were programmatically separated into individual spot images, each spot was segmented, and several image attributes were measured (raw particle count, mean background value, mean segmented region value, segmented region area). […]

Medicago truncatula A17 = assay: Plant nodulation assay with stabilized E. meliloti; format: in vivo; settings: E. meliloti formulated in the material, 50° C. shock for 24 hours, rehydrated, applied to seedlings
Description: E. meliloti cultures were prepared as described above (see “High throughput pipeline for microbial material stabilizers”) and freeze-dried with the specified stabilizers following the 1-well plate method described in “Validation of two-material combinations”. The bagged, stabilized powders were exposed to 50° C. for 24 hours in a static incubator and then kept in the dark at 4° C. until used.
Nodulation of Medicago truncatula A17 was assayed according to a protocol from Sadowsky et al. modified to growth in pouches^20-22. Specifically, M. truncatula A17 seeds (Noble Research Institute) were scarified by submerging in concentrated sulfuric acid for 8-9 minutes, washed 8× with sterile water, sterilized by submerging in 8.25% sodium hypochlorite for 90 seconds, washed 8× with sterile water, allowed to imbibe in sterile water for ˜1 hour, placed on 1% agar plates, sealed with parafilm and foil, vernalized at 4° C. in the dark for 5 days and germinated at 23° C. in the dark for 20 hours. […]
The pouches were left undisturbed for 6 days, watered with 5 mL of 1/2×BNM as necessary and then inspected for nodules every other day. On day 12, the number of nodulated seedlings in each pouch was counted. The percent nodulated seedlings was calculated by dividing the number of nodulated seedlings by the total number of seedlings in the pouch.

E. coli Nissle 1917 = assay: Validation of two-material combinations at 37° C.; format: cell-based, Escherichia coli; settings: in combination with melibiose, larger format
Description: E. coli Nissle 1917 was prepared as described above (see “Vial-based viability validation”) with a few modifications: the flask culture was 2 L and incubated for 17-18 hours and the final cell suspension in PBS was set to an OD600 of 10-12.
To freeze-dry, the cell suspension (12.5 mL) was mixed with the target material combination (37.5 mL), poured into rectangular 1-well plates, and placed into a tray freeze dryer with shelfs pre-cooled to −40° C. and on custom 0.25-inch aluminum pedestals to ensure heat transfer to the plates. Samples were dried as described above (see “High throughput pipeline”). […]
The viability of the stored samples was assessed by hydrating the samples with 1 mL PBS, making 10-fold serial dilutions, spotting ˜1.5 uL of each dilution in triplicate onto LB agar in 1-well rectangular plates using a pin replicator (V&P Scientific, VP 407A), incubating at 37° C., and counting colonies on the strongest dilution that gives >1 colony per spot. Total CFU counts per sample were calculated by first dividing spot counts by the spotted volume and multiplying by the dilution factor and total rehydration volume, and then averaging across the three spotting replicates. Total CFU counts per mass were calculated by dividing the CFU counts per sample by the mass of the stored sample. Three independently stored replicate samples were analyzed as described. […]

[1] = tested on: Escherichia coli Nissle 1917, Ensifer meliloti, Saccharomyces boulardii, Lactobacillus plantarum; assay: High throughput pipeline for microbial material stabilizers (Viability Score after freeze-drying); format: cell-based; settings: for viability score: after freeze-drying and 24 hours at room temperature, across the 4 microorganisms, score 0 to 1
Description: It was hypothesized that a synthetic extremophile that could survive in the dry state could then be enhanced to survive additional environmental insults using material formulation techniques applied to the dry powder (e.g., coating)^9. Therefore, a library was screened, composed primarily of materials generally recognized as safe (GRAS) by the Food and Drug Administration (FDA) for their ability to protect microbes through freeze-drying and survival at room temperature for 24 hours (Table 2). This materials library was applied to 4 microorganisms (Escherichia coli Nissle 1917, Ensifer meliloti, Saccharomyces boulardii, Lactobacillus plantarum) that span a wide range of phylogenetic backgrounds, are technologically important and genetically tractable. Each microorganism was mixed with each of the 260 materials at two different concentrations to give 2,080 microbial-material formulations.
Microbial strains were precultured overnight in 5 mL liquid medium at the appropriate conditions (see above). The overnight culture was diluted 1:1000 fold into three replicates of 125 mL of fresh liquid medium in a flask and cultured for 24 hours. The optical density (OD600) of each replicate culture was recorded (typically 2-2.5 for E. coli Nissle 1917, E. meliloti, L. plantarum and 5-6 for S. boulardii) and the cells were pelleted at 3220 rcf for 15 minutes. The cell pellets were then resuspended in PBS (E. meliloti, L. plantarum, S. boulardii) or spent medium (E. coli Nissle 1917) to a final OD600 of 2.25 and used immediately.
The material library was prepared by mixing each material with ultrapure water to the specified concentration (1×, 5×) in Table 2. The material solutions were arrayed in sealed deep well plates and kept at −20° C. until needed. On the day of use, the material plates were thawed at room temperature, vortexed well and centrifuged briefly.
To freeze-dry, each replicate microbial cell suspension (25 uL) was mixed with the arrayed materials (75 uL) in batch into flat-bottom 96-well plates using a liquid handling robot (Tecan, EVO 150). […]
as §1, §2

## OC[C@H]1O[C@H](O[C@H]2[C@H](O)[C@@H](O)C(O)O[C@@H]2CO)[C@H](O)[C@@H](O)[C@@H]1O (mixture of isomers) [maltose]
E. meliloti
  material class in heat shock screen (synthetic thermotolerance): optimal
Medicago truncatula A17
  nodulation of M. truncatula seedlings by stabilized E. meliloti: successfully nodulate

## Cn1c(=O)c2c(ncn2C)n(C)c1=O [caffeine]
E. coli Nissle 1917
  stability of two-material formulation at extended storage times: robust

## OC[C@H]1O[C@H](OCC2O[C@@H](O)[C@H](O)[C@@H](O)[C@@H]2O)[C@H](O)[C@@H](O)[C@H]1O (stereo partly drawn) [melibiose]
[1]; E. coli Nissle 1917
  performance in stabilizer screen: best performing material

## [Na+].[OH-] [sodium hydroxide]
[1]
  viability score: 0

## O=S([O-])S(=O)(=O)[O-].[Na+].[Na+] [sodium metabisulfite]
[1]
  viability score: 0

## OC[C@H]1O[C@@](CO)(O[C@H]2O[C@H](CO)[C@@H](O)[C@H](O)[C@H]2O)[C@@H](O)[C@@H]1O [sucrose]
E. meliloti
  material class in heat shock screen (synthetic thermotolerance): optimal
Medicago truncatula A17
  nodulation of M. truncatula seedlings by stabilized E. meliloti: successfully nodulate

## OC[C@H]1O[C@H](O[C@H]2O[C@H](CO)[C@@H](O)[C@H](O)[C@H]2O)[C@H](O)[C@@H](O)[C@@H]1O [trehalose]
[1]
  viability score: measurable viability
